Reference: paper PMC3998711 (Nature chemical biology, 2014)
Where two headings read alike, the source gives them in different places. Blank lines part the entries; values can stand above or below the compound they belong to.

Key:
c-Myc [1] = test: Western blot analysis of cellular c-Myc levels in MM.1S cells; assay type: cell-based, human; details: 6 h; for c-Myc levels (western blot): MM.1S cells, inhibitor 5 μM; for IC50: Homo sapiens, MM1.S, read-out: IC50 for c-Myc suppression
[2] = system: MM.1S multiple myeloma cells; test: MM.1S proliferation assay; assay type: cell-based; details: Homo sapiens, MM1.S, 72 h, read-out: IC50, MM.1S proliferation
[3] = system: 12 primary human cell-based BioMAP systems; test: BioMAP primary human cell disease model assay systems
[4] = target: first bromodomain of BRD4, BRD4(1) (Homo sapiens, UniProt O60885); test: AlphaScreen assay; assay type: binding; details: described in words
BRD4(1) = BRD4(1) (Homo sapiens, UniProt O60885); test: Isothermal titration calorimetry; assay type: binding; details: ITC, 15 °C, 50 mM HEPES, 150 mM NaCl
RSK family kinase = test: Kinome-wide profiling, RSK family; details: read-out: Kds, RSK family; kinome-wide data
PLK family = test: Kinome-wide profiling, PLK family
MV4-11 AML cells = test: MV4-11 proliferation assay; assay type: cell-based, human; details: read-out: IC50, proliferation of MV4-11 AML cells
c-Myc [5] = test: Western blot of c-Myc levels in Molm14 cell lines; assay type: cell-based, human; details: FLT3 inhibitor-sensitive and -resistant lines, 6 h

IC50 (c-Myc [1]): 1 to 3 µM
IC50 [2]: 1 to 3 µM
Structure (SMILES): Cc1cnc(Nc2ccc(OCCN3CCCC3)cc2)nc1Nc1cccc(S(=O)(=O)NC(C)(C)C)c1 [TG-101348]
c-Myc levels (western blot) (c-Myc [1]): strong c-Myc down regulation
production of TNFα, MIG and IL-8 [3]: inhibited

AlphaScreen dose response IC50 [4]: nanomolar
Kd (BRD4(1)): 3.5 ± 0.17 µM
Kd (RSK family kinase): 0.01 to 0.1 µM
Kd (PLK family; read-out: Kds, PLK family, kinome-wide data): ~0.01 µM
Structure (SMILES): CC(C)CCN1c2nc(Nc3cc(F)c(O)c(F)c3)ncc2N(C)C(=O)C1C (stereo not shown) [BI-D1870]
PLK family potencies lower than for BI-2536 (PLK family): 10–100 fold

IC50 (c-Myc [1]): ~0.1 µM
Structure (SMILES): CC[C@@H]1C(=O)N(C)c2cnc(Nc3ccc(C(=O)NC4CCN(C)CC4)cc3OC)nc2N1C1CCCC1 [BI-2536]
c-Myc levels (western blot) (c-Myc [1]): strong c-Myc down regulation

Kd (BRD4(1); error of the fit): 0.445 ± 0.042 µM
Structure (SMILES): CN(c1ccccc1CNc1nc(Nc2ccc3c(c2)CC(=O)N3)ncc1C(F)(F)F)S(C)(=O)=O [PF-431396]

The next lines start with the compound.

Structure (SMILES): C[C@@H]1CCN(C(=O)CC#N)C[C@@H]1N(C)c1ncnc2[nH]ccc12 [tofacitinib]
c-Myc levels (western blot) (c-Myc [1]): did not affect c-Myc levels

Structure (SMILES): C[C@@H](Oc1cc(-n2cnc3ccc(CN4CCN(C)CC4)cc32)sc1C(N)=O)c1ccccc1C(F)(F)F [GSK-461364A]
c-Myc levels (western blot) (c-Myc [1]): did not affect c-Myc levels

Structure (SMILES): N#CC[C@H](C1CCCC1)n1cc(-c2ncnc3[nH]ccc23)cn1 [ruxolitinib]
c-Myc levels (western blot) (c-Myc [1]): did not affect c-Myc levels
IC50 (MV4-11 AML cells; Homo sapiens, MV4-11, 72 h): ~10 µM

Structure (SMILES): COc1cc2c(cc1-c1c(C)noc1C)ncc1[nH]c(=O)n([C@H](C)c3ccccn3)c12 [I-BET]
IC50 (MV4-11 AML cells; 72 h): 0.2 µM

Structure (SMILES): Cc1sc2c(c1C)C(c1ccc(Cl)cc1)=N[C@@H](CC(=O)OC(C)(C)C)c1nnc(C)n1-2 [JQ1]
IC50 (MV4-11 AML cells; 72 h): 0.028 µM
c-Myc expression in Molm14 cell lines (c-Myc [5]): inhibits c-Myc expression with similar potencies
